ChEMBL document CHEMBL4507293 (2021)

Experiments:
[1] = test system: Tyrosine-protein kinase ABL1 (Homo sapiens), P00519 [F317I]; conditions: Compound concentration 100.0 nM
[2] = test system: Tyrosine-protein kinase ABL1 (Homo sapiens), P00519 [H396P]; conditions: Compound concentration 100.0 nM
[3] = test system: Tyrosine-protein kinase ABL1 (Homo sapiens), P00519 [Q252H]; conditions: Compound concentration 100.0 nM
[4] = molecular target: Tyrosine-protein kinase ABL1 (Homo sapiens) (UniProt P00519); conditions: Compound concentration 100.0 nM
[5] = molecular target: Activin receptor type-1-like (Homo sapiens) (UniProt P37023); conditions: Compound concentration 100.0 nM
[6] = molecular target: Ankyrin repeat and protein kinase domain-containing protein 1 (Homo sapiens) (UniProt Q8NFD2); conditions: Compound concentration 100.0 nM
[7] = molecular target: NUAK family SNF1-like kinase 1 (Homo sapiens) (UniProt O60285); conditions: Compound concentration 100.0 nM
[8] = molecular target: Aurora kinase C (Homo sapiens) (UniProt Q9UQB9); conditions: Compound concentration 100.0 nM
[9] = molecular target: Calcium/calmodulin-dependent protein kinase type 1 (Homo sapiens) (UniProt Q14012); conditions: Compound concentration 100.0 nM
[10] = molecular target: Cyclin-dependent kinase 13 (Homo sapiens) (UniProt Q14004); conditions: Compound concentration 100.0 nM
[11] = molecular target: Cyclin-dependent kinase 19 (Homo sapiens) (UniProt Q9BWU1); conditions: Compound concentration 100.0 nM
[12] = molecular target: Casein kinase I isoform gamma-1 (Homo sapiens) (UniProt Q9HCP0); conditions: Compound concentration 100.0 nM
[13] = molecular target: Death-associated protein kinase 1 (Homo sapiens) (UniProt P53355); conditions: Compound concentration 100.0 nM
[14] = molecular target: Death-associated protein kinase 3 (Homo sapiens) (UniProt O43293); conditions: Compound concentration 100.0 nM
[15] = molecular target: Epithelial discoidin domain-containing receptor 1 (Homo sapiens) (UniProt Q08345); conditions: Compound concentration 100.0 nM
[16] = molecular target: Serine/threonine-protein kinase 17B (Homo sapiens) (UniProt O94768); conditions: Compound concentration 100.0 nM
[17] = molecular target: Epidermal growth factor receptor (Homo sapiens) (UniProt P00533); conditions: Compound concentration 100.0 nM
[18] = test system: Fibroblast growth factor receptor 3 (Homo sapiens), P22607 [G697C]; conditions: Compound concentration 100.0 nM
[19] = molecular target: G protein-coupled receptor kinase 3 (Homo sapiens) (UniProt P35626); conditions: Compound concentration 100.0 nM
[20] = molecular target: Tyrosine-protein kinase HCK (Homo sapiens) (UniProt P08631); conditions: Compound concentration 100.0 nM
[21] = molecular target: Inhibitor of nuclear factor kappa-B kinase subunit alpha (Homo sapiens) (UniProt O15111); conditions: Compound concentration 100.0 nM
[22] = test system: Mast/stem cell growth factor receptor Kit (Homo sapiens), P10721 [D816V]; conditions: Compound concentration 100.0 nM
[23] = molecular target: Mitogen-activated protein kinase kinase kinase 15 (Homo sapiens) (UniProt Q6ZN16); conditions: Compound concentration 100.0 nM
[24] = test system: Hepatocyte growth factor receptor (Homo sapiens), P08581 [M1250T]; conditions: Compound concentration 100.0 nM
[25] = molecular target: MAP kinase-interacting serine/threonine-protein kinase 1 (Homo sapiens) (UniProt Q9BUB5); conditions: Compound concentration 100.0 nM
[26] = molecular target: Serine/threonine-protein kinase Nek1 (Homo sapiens) (UniProt Q96PY6); conditions: Compound concentration 100.0 nM
[27] = molecular target: Serine/threonine-protein kinase Nek2 (Homo sapiens) (UniProt P51955); conditions: Compound concentration 100.0 nM
[28] = molecular target: Serine/threonine-protein kinase Nek5 (Homo sapiens) (UniProt Q6P3R8); conditions: Compound concentration 100.0 nM
[29] = molecular target: Mitogen-activated protein kinase 12 (Homo sapiens) (UniProt P53778); conditions: Compound concentration 100.0 nM
[30] = molecular target: Phosphatidylinositol 4-phosphate 3-kinase C2 domain-containing subunit beta (Homo sapiens) (UniProt O00750); conditions: Compound concentration 100.0 nM
[31] = molecular target: Phosphatidylinositol 4-phosphate 5-kinase type-1 alpha (Homo sapiens) (UniProt Q99755); conditions: Compound concentration 100.0 nM
[32] = molecular target: cAMP-dependent protein kinase catalytic subunit beta (Homo sapiens) (UniProt P22694); conditions: Compound concentration 100.0 nM
[33] = molecular target: Serine/threonine-protein kinase N2 (Homo sapiens) (UniProt Q16513); conditions: Compound concentration 100.0 nM
[34] = molecular target: Protein kinase C iota type (Homo sapiens) (UniProt P41743); conditions: Compound concentration 100.0 nM
Sequence of Protein kinase C iota type (Homo sapiens) (P41743 whole entry): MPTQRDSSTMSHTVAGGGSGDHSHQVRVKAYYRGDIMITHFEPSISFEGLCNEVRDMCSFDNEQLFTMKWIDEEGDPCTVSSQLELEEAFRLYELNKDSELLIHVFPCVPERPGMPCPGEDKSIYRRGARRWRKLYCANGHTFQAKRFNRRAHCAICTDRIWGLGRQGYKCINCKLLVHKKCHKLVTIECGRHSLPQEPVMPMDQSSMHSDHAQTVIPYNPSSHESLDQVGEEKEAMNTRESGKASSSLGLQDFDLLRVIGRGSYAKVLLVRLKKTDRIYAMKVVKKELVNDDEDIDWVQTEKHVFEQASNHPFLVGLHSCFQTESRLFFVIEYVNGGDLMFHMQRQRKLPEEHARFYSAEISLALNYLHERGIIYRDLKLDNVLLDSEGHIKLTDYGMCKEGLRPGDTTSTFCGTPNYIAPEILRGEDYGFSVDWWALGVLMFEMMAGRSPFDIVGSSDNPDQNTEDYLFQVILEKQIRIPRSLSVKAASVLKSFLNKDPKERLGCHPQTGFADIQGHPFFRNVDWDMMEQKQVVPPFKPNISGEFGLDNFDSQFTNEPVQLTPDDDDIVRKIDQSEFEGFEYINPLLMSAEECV

[35] = molecular target: Serine/threonine-protein kinase D1 (Homo sapiens) (UniProt Q15139); conditions: Compound concentration 100.0 nM
[36] = molecular target: Proto-oncogene tyrosine-protein kinase ROS (Homo sapiens) (UniProt P08922); conditions: Compound concentration 100.0 nM
Sequence of Proto-oncogene tyrosine-protein kinase ROS (Homo sapiens) (P08922 whole entry): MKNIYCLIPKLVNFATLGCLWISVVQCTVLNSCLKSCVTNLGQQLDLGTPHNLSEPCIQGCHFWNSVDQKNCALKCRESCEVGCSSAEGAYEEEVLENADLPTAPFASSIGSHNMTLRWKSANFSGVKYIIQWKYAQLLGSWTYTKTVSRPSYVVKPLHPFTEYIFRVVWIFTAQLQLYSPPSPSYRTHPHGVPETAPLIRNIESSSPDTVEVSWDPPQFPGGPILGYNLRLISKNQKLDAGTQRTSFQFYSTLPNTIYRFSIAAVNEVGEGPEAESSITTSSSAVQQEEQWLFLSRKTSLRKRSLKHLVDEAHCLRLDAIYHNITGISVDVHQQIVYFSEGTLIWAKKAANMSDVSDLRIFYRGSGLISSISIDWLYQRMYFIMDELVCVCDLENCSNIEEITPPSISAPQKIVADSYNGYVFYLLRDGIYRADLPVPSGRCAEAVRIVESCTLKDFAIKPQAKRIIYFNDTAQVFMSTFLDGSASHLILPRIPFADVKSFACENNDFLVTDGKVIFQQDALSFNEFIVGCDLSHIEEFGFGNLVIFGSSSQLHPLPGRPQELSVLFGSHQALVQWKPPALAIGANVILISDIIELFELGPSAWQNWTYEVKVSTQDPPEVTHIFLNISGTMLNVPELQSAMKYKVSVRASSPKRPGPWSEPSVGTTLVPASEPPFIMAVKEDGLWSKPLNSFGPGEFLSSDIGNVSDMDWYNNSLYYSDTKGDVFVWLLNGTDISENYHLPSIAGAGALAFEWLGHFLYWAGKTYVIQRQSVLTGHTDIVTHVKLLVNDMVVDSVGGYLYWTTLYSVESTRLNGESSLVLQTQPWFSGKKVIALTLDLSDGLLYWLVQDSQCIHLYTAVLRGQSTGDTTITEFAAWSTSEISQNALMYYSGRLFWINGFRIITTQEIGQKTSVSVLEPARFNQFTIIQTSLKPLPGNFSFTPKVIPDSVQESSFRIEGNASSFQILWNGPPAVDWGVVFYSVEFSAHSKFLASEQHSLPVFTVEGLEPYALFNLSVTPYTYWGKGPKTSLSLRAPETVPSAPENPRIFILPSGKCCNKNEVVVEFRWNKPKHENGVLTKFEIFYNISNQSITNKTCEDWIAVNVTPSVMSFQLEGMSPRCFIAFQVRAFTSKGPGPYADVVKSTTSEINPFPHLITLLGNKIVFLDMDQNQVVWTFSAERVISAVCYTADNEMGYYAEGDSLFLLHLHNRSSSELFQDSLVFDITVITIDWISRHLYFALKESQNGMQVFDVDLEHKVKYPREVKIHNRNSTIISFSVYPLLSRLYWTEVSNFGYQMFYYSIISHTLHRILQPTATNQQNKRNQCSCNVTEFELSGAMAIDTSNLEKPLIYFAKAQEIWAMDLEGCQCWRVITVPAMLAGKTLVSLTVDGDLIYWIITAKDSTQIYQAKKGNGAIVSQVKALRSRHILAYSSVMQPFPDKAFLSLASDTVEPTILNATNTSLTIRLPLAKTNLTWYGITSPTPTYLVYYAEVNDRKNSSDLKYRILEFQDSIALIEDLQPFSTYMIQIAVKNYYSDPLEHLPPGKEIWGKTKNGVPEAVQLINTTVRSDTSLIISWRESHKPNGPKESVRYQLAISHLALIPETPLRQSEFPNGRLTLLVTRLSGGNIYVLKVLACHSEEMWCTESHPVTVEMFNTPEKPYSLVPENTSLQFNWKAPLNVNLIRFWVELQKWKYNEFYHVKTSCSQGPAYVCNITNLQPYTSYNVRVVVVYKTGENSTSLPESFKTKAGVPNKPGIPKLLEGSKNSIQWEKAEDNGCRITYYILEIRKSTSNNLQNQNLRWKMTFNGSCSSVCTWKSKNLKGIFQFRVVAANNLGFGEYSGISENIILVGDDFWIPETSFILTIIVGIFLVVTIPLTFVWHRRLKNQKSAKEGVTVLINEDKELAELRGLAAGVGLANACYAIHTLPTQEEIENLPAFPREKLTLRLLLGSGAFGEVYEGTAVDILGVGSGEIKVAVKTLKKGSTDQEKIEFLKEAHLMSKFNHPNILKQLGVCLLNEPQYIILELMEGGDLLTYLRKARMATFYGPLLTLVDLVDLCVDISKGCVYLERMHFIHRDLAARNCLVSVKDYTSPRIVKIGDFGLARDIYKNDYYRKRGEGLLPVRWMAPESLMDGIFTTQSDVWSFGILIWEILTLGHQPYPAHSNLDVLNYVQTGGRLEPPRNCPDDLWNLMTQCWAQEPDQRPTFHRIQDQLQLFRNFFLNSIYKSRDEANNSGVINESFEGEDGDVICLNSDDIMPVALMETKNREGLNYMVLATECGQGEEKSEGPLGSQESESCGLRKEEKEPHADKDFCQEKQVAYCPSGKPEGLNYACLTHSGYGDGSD

[37] = molecular target: Ribosomal protein S6 kinase alpha-4 (Homo sapiens) (UniProt O75676); conditions: Compound concentration 100.0 nM
[38] = molecular target: STE20-like serine/threonine-protein kinase (Homo sapiens) (UniProt Q9H2G2); conditions: Compound concentration 100.0 nM
Sequence of STE20-like serine/threonine-protein kinase (Homo sapiens) (Q9H2G2 whole entry, looked up): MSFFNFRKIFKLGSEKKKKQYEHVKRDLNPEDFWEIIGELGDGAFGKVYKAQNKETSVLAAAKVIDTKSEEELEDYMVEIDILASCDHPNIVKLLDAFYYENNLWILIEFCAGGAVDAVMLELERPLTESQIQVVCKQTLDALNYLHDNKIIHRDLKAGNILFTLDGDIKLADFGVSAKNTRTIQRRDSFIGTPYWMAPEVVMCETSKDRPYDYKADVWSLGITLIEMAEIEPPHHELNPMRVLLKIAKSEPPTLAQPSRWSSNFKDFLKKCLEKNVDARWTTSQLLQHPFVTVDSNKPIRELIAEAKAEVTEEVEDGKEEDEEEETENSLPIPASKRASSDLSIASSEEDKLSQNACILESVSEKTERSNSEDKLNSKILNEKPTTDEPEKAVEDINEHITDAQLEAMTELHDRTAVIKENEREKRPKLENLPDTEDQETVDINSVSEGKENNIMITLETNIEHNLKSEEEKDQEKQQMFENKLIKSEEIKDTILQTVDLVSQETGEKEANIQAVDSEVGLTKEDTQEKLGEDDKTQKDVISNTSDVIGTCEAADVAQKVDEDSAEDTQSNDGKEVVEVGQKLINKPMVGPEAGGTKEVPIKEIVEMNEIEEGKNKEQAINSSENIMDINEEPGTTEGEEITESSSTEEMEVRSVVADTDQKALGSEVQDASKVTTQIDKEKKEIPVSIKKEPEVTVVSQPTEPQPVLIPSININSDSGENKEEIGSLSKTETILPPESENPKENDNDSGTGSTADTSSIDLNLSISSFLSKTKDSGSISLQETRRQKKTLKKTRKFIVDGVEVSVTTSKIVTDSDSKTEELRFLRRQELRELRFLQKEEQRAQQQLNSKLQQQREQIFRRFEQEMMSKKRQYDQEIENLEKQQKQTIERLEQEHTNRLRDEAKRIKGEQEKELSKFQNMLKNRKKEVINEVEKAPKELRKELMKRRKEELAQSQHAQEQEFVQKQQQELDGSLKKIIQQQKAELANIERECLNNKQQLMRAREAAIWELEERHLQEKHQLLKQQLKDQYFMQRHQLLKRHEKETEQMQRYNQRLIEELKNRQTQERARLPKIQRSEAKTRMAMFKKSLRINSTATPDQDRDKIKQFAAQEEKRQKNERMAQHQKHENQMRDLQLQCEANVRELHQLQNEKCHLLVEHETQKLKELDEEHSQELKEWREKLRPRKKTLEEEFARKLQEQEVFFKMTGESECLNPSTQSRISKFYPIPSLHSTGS

[39] = molecular target: TGF-beta receptor type-1 (Homo sapiens) (UniProt P36897); conditions: Compound concentration 100.0 nM
[40] = molecular target: Tyrosine-protein kinase receptor Tie-1 (Homo sapiens) (UniProt P35590); conditions: Compound concentration 100.0 nM
[41] = molecular target: Tyrosine-protein kinase Yes (Homo sapiens) (UniProt P07947); conditions: Compound concentration 100.0 nM
Sequence of Tyrosine-protein kinase Yes (Homo sapiens) (P07947 2-543 limits assumed): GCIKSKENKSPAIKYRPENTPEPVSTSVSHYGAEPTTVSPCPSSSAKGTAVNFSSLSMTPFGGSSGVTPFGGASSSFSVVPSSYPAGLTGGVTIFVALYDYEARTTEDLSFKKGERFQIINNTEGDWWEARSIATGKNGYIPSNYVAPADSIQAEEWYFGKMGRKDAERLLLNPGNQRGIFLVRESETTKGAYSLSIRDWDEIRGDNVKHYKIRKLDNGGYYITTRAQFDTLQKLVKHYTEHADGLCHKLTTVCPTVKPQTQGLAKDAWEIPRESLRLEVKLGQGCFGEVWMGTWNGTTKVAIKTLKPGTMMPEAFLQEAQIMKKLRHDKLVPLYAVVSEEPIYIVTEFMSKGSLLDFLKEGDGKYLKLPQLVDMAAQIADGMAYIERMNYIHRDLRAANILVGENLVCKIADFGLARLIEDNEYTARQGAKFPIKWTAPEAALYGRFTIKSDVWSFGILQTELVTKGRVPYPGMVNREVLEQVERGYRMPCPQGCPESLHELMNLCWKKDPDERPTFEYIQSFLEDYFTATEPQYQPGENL

[42] = molecular target: 5-hydroxytryptamine receptor 1B (Homo sapiens) (UniProt P28222); conditions: Compound concentration 10.0 uM
[43] = molecular target: 5-hydroxytryptamine receptor 1D (Homo sapiens) (UniProt P28221); conditions: Compound concentration 10.0 uM
Sequence of 5-hydroxytryptamine receptor 1D (Homo sapiens) (P28221 whole entry): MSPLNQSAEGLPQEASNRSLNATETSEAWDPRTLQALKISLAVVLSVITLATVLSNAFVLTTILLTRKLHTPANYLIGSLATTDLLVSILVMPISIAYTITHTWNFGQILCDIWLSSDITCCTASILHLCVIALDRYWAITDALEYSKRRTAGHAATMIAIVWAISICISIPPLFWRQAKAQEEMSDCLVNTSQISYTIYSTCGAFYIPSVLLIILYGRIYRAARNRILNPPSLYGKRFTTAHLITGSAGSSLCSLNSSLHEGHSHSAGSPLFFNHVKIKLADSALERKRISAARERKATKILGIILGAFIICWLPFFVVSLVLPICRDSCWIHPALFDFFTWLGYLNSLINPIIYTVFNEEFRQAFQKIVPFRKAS

[44] = molecular target: D(1B) dopamine receptor (Homo sapiens) (UniProt P21918); conditions: Compound concentration 10.0 uM
[45] = molecular target: Kappa-type opioid receptor (Homo sapiens) (UniProt P41145); conditions: Compound concentration 10.0 uM
Rattus norvegicus = species on record: Rattus norvegicus; conditions: Compound concentration 10.0 uM

CC(C)CC(=O)N1CCc2nc(-c3ccc(Br)cc3)nc(N(C)Cc3ccccc3)c2C1 [THPP-1-NC]
inactive: residual activity [1] 100% | residual activity [2] 100% | residual activity [3] 88% | residual activity [4] 58% | residual activity [5] 99% | residual activity [6] 100% | residual activity [7] 100% | residual activity [8] 100% | residual activity [9] 100% | residual activity [10] 100% | residual activity [11] 62% | residual activity [12] 100% | residual activity [13] 100% | residual activity [14] 100% | residual activity [15] 100% | residual activity [16] 91% | residual activity [17] 100% | residual activity [18] 100% | residual activity [19] 100% | residual activity [20] 94% | residual activity [21] 100% | residual activity [22] 100% | residual activity [23] 100% | residual activity [24] 70% | residual activity [25] 69% | residual activity [26] 100% | residual activity [27] 100% | residual activity [28] 100% | residual activity [29] 79% | residual activity [30] 100% | residual activity [31] 100% | residual activity [32] 82% | residual activity [33] 80% | residual activity [34] 100% | residual activity [35] 87% | residual activity [36] 100% | residual activity [37] 74% | residual activity [38] 100% | residual activity [39] 100% | residual activity [40] 100% | residual activity [41] 100% | inhibition [42] 12.9% | inhibition [43] 22.6% | inhibition [44] 19.4% | inhibition [45] 38% | inhibition (Rattus norvegicus) 41%

COCCOc1nc(-c2ccc(Cl)nc2)nc2c1CN(C(=O)c1ncn3ccccc13)CC2 [THPP-1]
inactive: residual activity [1] 100% | residual activity [2] 100% | residual activity [3] 81% | residual activity [4] 60% | residual activity [5] 100% | residual activity [6] 100% | residual activity [7] 100% | residual activity [8] 95% | residual activity [9] 100% | residual activity [10] 100% | residual activity [11] 63% | residual activity [12] 100% | residual activity [13] 100% | residual activity [14] 100% | residual activity [15] 100% | residual activity [16] 62% | residual activity [17] 88% | residual activity [18] 100% | residual activity [19] 100% | residual activity [20] 100% | residual activity [21] 100% | residual activity [22] 100% | residual activity [23] 100% | residual activity [24] 71% | residual activity [25] 77% | residual activity [26] 100% | residual activity [27] 100% | residual activity [28] 100% | residual activity [29] 72% | residual activity [30] 100% | residual activity [31] 100% | residual activity [32] 73% | residual activity [33] 55% | residual activity [34] 100% | residual activity [35] 90% | residual activity [36] 100% | residual activity [37] 86% | residual activity [38] 100% | residual activity [39] 100% | residual activity [40] 100% | residual activity [41] 100% | inhibition [42] 23.3% | inhibition [43] 8.09% | inhibition [44] -3.46% | inhibition [45] -1.56% | inhibition (Rattus norvegicus) 26.1%
